This note sets out measurements from patent US6610733B2, “Optically active chroman and thiochroman derivatives” (Chugai Seiyaku Kabushiki Kaisha, priority 1999, dated 2003).

This test relates to estradiol-induced increase in uterine weight. As to the kind of experiment: Anti-estrogenic activity (oral administration): inhibition of estradiol-induced increase in uterine weight in ovariectomized mice. Format: in vivo, mice (ICR). Particulars: ovariectomized mice given 17β-estradiol-benzoate 0.1 μg/mouse s.c. for 3 days, test compound 10 mg/kg p.o., once a day, uterine weight 24 hours after last administration. The procedure: Test compounds were assayed for their oral anti-estrogenic activity in the following manner. In this experiment, the compounds prepared in Examples 2 and 3 were used as test compounds and the corresponding racemic mixture (10-[(3RS,4RS)-7-hydroxy-3-(4-hydroxyphenyl)-3-methylthiochroman-4-yl]-2-(4,4,5,5,5-pentafluoropentyl)decanoic acid was used as a control compound. This control compound was synthesized according to Reaction Schemes 1 to 7 mentioned above.
In this experiment, each of the test and control compounds was suspended in 5% arabic gum solution and orally administered for 3 days on a once-a-day basis. After 24 hours from the last administration, the test animals were sacrificed and the uteri were removed and weighed.

Regarding `C[C@@]1(c2ccc(O)cc2)CSc2cc(O)ccc2[C@@H]1CCCCCCCCC(CCCC(F)(F)C(F)(F)F)C(=O)O` (single isomer, unassigned) [Example 10, Peak 2], the “Inhibition (%)” value (10 mg/kg) stood at 78%. On the same count and under the same terms, next, `C[C@@]1(c2ccc(O)cc2)CSc2cc(O)ccc2[C@@H]1CCCCCCCCC(CCCC(F)(F)C(F)(F)F)C(=O)O` (single isomer, unassigned) [Example 10, Peak 1]: 87%. As for `C[C@@]1(c2ccc(O)cc2)CSc2cc(O)ccc2[C@@H]1CCCCCCCCC(CCCC(F)(F)C(F)(F)F)C(=O)O` (stereo partly drawn) [Example 2, 10-[(3R,4R)-7-Hydroxy-3-(4-hydroxyphenyl)-3-methylthiochroman-4-yl]-2-(4,4,5,5,5-pentafluoropentyl)decanoic Acid], the “Inhibition (%)” value came out at 90%. On the same count and under the same terms, next, `C[C@@]1(c2ccc(O)cc2)CSc2cc(O)ccc2[C@@H]1CCCCCCCCC(CCCC(F)(F)C(F)(F)F)C(=O)O` (mixture of isomers) [10-[(3RS,4RS)-7-hydroxy-3-(4-hydroxyphenyl)-3-methylthiochroman-4-yl]-2-(4,4,5,5,5-pentafluoropentyl)decanoic acid, reference compound]: 75%; `C[C@]1(c2ccc(O)cc2)CSc2cc(O)ccc2[C@H]1CCCCCCCCC(CCCC(F)(F)C(F)(F)F)C(=O)O` (stereo partly drawn) [Example 3, 10-[(3S,4S)-7-Hydroxy-3-(4-hydroxyphenyl)-3-methylthiochroman-4-yl]-2-(4,4,5,5,5-pentafluoropentyl)decanoic Acid]: 69%.
